Tests used:
HIV Integrase = HIV Integrase (Human immunodeficiency virus type 1 group M subtype B, UniProt P04585); experiment: Assay for Inhibition of Strand Transfer by HIV Integrase; format: biochemical
Experimental: Assay for Inhibition of Strand Transfer by HIV Integrase
Inhibition of strand transfer was conducted according to Hazuda, D. J. et al. Nucleic Acids Res., 22, 1121 (1994), hereby incorporated by reference for these purposes.

[1] = target: DNP-stimulatedATPase activity of rat liver mitoplast; details: Koenig et al. 1993, read-out: IC50, DNP-stimulated ATPase activity; cited from earlier work
[2] = target: DNP-stimulatedATPase activity of rat liver mitochondria; details: Koenig et al. 1993, read-out: IC50, DNP-stimulated ATPase activity; cited from earlier work

For `CC=CC1C=CC2CC(C)CCC2C1(C)C(O)=C1C(=O)C(CO)N(C)C1=O` (centres unmarked) [Compound A, equisetin], the IC50 (HIV Integrase) is listed as 7 µM, the IC50 [1] is listed as ~0.008 µM and the IC50 [2] is listed as ~0.008 µM.

For `CC=CC=CC1C(C)=CC2CC(C)CCC2C1(C)C(O)=C1C(=O)C(CO)N(C)C1=O` (centres unmarked) [Compound B], the IC50 (HIV Integrase) was 11 µM.

`CCCCCC1C(C)=CC2CC(C)CCC2C1(C)C(O)=C1C(=O)C(CO)N(C)C1=O` (centres unmarked) [Compound C] showed an IC50 (HIV Integrase) of 5 µM.

Reference: patent US5759842A, “In vitro HIV integrase inhibitors” (Merck & Co., Inc., priority 1996, dated 1998)
